Results on 9 compounds are retold here after patent publication EP1813636A1, “Polyamine analogs that activate antizyme frameshifting” (MediQuest Therapeutics, Inc., priority 2004, dated 2007).

The target in one experiment is T1, ODC (Homo sapiens, UniProt P11926).
T1 sequence (P11926 1-461): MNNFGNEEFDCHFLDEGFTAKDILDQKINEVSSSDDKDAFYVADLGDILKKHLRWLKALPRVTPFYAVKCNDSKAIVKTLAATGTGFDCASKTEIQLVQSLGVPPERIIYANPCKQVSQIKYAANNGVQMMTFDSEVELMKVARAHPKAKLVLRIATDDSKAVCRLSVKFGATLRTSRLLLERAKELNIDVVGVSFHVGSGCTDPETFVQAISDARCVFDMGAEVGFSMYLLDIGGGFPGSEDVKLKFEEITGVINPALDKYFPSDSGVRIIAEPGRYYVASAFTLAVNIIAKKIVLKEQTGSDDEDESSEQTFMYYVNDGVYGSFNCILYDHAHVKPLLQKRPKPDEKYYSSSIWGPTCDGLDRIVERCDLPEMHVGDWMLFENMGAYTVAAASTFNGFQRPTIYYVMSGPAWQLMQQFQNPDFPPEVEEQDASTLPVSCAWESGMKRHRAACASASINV
The note with it: inhibition of ODC; cited from earlier work.

Experiment [1] concerns HEK-293 cells. In words: rescue from DFMO-induced growth inhibition (6 days, MTS/PMS dye assay). The note with it: 25 µM compound, 2.5 mM DFMO. The experiment is classed as cell-based.
Protocol: The rescue coefficient represents the ratio of cell growth, as measured by O.D., of the test compound with 2.5 mM DFMO versus 2.5 mM DFMO alone.
HEK-293 cells are plated in 96-well assay plates at 1,000 cells per well in 100 µL of medium (DMEM supplemented with 10% fetal bovine serum (Gibco), 1% penicillin, streptomycin and L-glutamine). The cells are incubated overnight at 37°C in an atmosphere of 5% CO2. Compounds are added the next day to a final concentration of 25 µM along with 1 mM aminoguanidine (inhibits serum amine oxidase) and 2.5 mM DFMO in a final volume of 200 µL medium. The positive control contained 25 µM spermidine. The cells are allowed to incubate for 6 days before cell growth is measured by MTS/PMS dye assay (Cell Titer 96 Aqueous Non-Radioactive Cell Proliferation Assay, Promega). […] Therefore, DFMO alone has a value of one. […] If the value is less than one, then the compound is growth inhibitory. If the value is 0, the compound is cytotoxic.
For another experiment, the system named is antizyme. Conditions: 10 µM; cited from earlier work.
Another experiment concerns antizyme frameshifting. In words: dual luciferase reporter assay for antizyme frameshifting in HEK-293 cells. Type of experiment: cell-based. Conditions: for frameshift-rescue factor (FRF): %RF multiplied by the inverse of the rescue coefficient. As to the method: Frameshifting can be detected using a dual luciferase reporter system that measures the efficiency of antizyme translational frameshifting (Grentzmann, G. et. al., RNA 4:479-486 (1998); Howard, M. et. al., Genes to Cells 6:931-941 (2001)). Frameshifting efficiency is determined by comparing the ratio of firefly luciferase to renilla luciferase activity in cells transfected in parallel using a control vector containing a constitutive […] (AZ-IF) that measures the in-frame translation efficiency and a vector containing the inducible 0 to +1 frameshift (AZ1) construct. In these constructs, the renilla luciferase gene is upstream of the firefly luciferase gene which are separated by a short cloning sequence containing the portions of antizyme 1 and 2 known to contain the mRNA signals for polyamine stimulated frameshifting. Using a 96-well format, this assay system gives a quantitative measure of the efficiency of the polyamines, polyamine analogs and other compounds to induce frameshifting in a cell-based bioassay. Cells must be pretreated with α-difluoromethylomithine (DFMO), an irreversible inhibitor of ODC, prior to screening to decrease the basal antizyme frameshifting levels and increase the sensitivity to polyamine or compound-mediated stimulation of antizyme frameshifting.
Figure 1 is a tabular representation of a large number of polyamines A-S (25 µM) that were tested for their ability to induce antizyme frameshifting using the dual luciferase reporter assay. The percent relative frameshifting value (% RF) gives a comparison of the ability of a compound to induce frameshifting compared to 25 µM spermidine. The % RF was calculated as follows. The background percent frameshifting activity determined from the 2.5 mM DFMO negative control was subtracted from the percent frameshifting activity for all compounds including the spermidine control. The background corrected frameshifting activity of each compound was then divided by the background corrected frameshifting activity induced by 25 µM spermidine and multiplied by 100. The compounds were also evaluated for their ability to rescue cells from DFMO-induced growth inhibition by determining their rescue coefficient. The rescue coefficient represents the ratio of the cell growth, as measured by O.D., in the presence of the test compound with 2.5 mM DFMO to the growth in the presence of 2.5 mM DFMO alone. The frameshift-rescue factor (FRF) is a useful factor to compare the effectiveness of the various antizyme frameshifters by taking into account their potency for inducing frameshifting and ability to rescue cells from DFMO-induced growth inhibition. The FRF was calculated by multipling the %RF value by the inverse of the rescue coefficient.
Values represent percent frameshifting following transient transfection of an AZ1-IF control and the inducible 0 to +1 AZ1 plasmid construct into HEK-293 cells grown in the presence of 2.5 mM DFMO. The compounds were added to the cells after transfection and incubated overnight before assaying the next day. Each value represents triplicate measurements.
A series of compounds are screened for their ability to induce frameshifting using the dual luciferase reporter assay. HEK-293 cells are plated in white sided, clear-bottomed 96-well assay plates at 15,000 cells per well in 100 µL of medium (DMEM supplemented with 10% fetal bovine serum (Gibco), 1% penicillin, streptomycin and L-glutamine) containing 2.5 mM DFMO. […]
For orientation: A reporter such as luciferase makes a cellular process visible.

Experiment [2] relates to HEK-293 cells. In words: cells. Here is the method: Cell number was determined by MTS/PMS assay from triplicate wells. Cells are plated in 96-well plates such that they would be in log growth for the duration of the assay. The day after plating, the polyamine analogs are added to the cells, and growth, if any, permitted to continue for six days in the presence of 1 mM AG and 1 µM SPD when appropriate. At the end of six days, cell growth is measured by MTS/PMS dye assay (Cell Titer 96 Aqueous Non-Radioactive Cell Proliferation Assay; Promega, Madison, WI).

Experiment [3] deals with HEK-293 cells. In words: intracellular polyamine levels (HPLC) and cell growth after 6-day incubation. Type of experiment: cell-based. As to the method:
Figure 6 is a graph showing the effect of a 6-day incubation of compound A on HEK-293 cellular polyamine levels and cell growth. All flasks received 1 mM aminoguanidine. Cells were washed, counted, lysed in perchloric acid, dansylated and polyamine levels determined by HPLC. Each value represents the average of triplicate values with the error bars representing standard deviation. Figure 7 illustrates the effect of extracellular compound A on the intracellular concentration of compound A in HEK-293 cells as determined by HPLC. Cells were prepared as in Figure 6. Peak area was normalized by dividing the peak area of the compound divided by the peak area of the internal standard, diaminoheptane. Values represent at least triplicate measurements with the error bars representing standard deviation.
Compound A is further evaluated to determine if it depletes intracellular polyamine levels in HEK-293 cells in a dose-dependent fashion (Fig. 6). […] After overnight incubation at 37°C in an atmosphere of 5% CO2, compound A is added along with 1 mM aminoguanidine. The flasks are then incubated for 6 days at 37°C in an atmosphere of 5% CO2. The cells are harvested by washing twice with ice-cold 1X PBS, trypsinized, counted, and lysed in 0.4 N perchloric acid. Diaminoheptane is used in all dansylation reactions as an internal standard. Peak area is normalized by dividing the peak area of the compound divided by the peak area of the internal standard. The HPLC method for the fluorometric detection of polyamines from the cell extracts is based on the procedure by Kabra (Kabra, P. M. et. al. J. Chromatogr. 380:19-32 (1986)).

Usually Ki stands for a measure of affinity in units of concentration, obtained from inhibition or displacement. Take `NC/C=C/CN` [1,4-diamino-trans-2-butene]: at ODC, the Ki was 2 µM.
Turning to `Nc1ccc(N)cc1` [1,4-phenylenediamine], at ODC, the Ki is 46 µM.
Turning to `N=C(N)NCCCCN` [Agmatine, reference compound], the “ability to rescue cells from DFMO-induced growth inhibition” value in the experiment with HEK-293 cells [1] is listed as “somewhat better than either A or B”.
As for `CCNCCCCNCCCCNCCCCNCCCCNCC` [BE-4-4-4-4, 1,19-bis(ethylamino)-5,10,15-triazanonadecane], the “antizyme induction compared with spermine” value in the experiment with antizyme is “induce antizyme as well as spermine”.
One may read the IC50 as the concentration that gives 50% inhibition. For the compound `NCCCNCc1ccc(CN)cc1` [Compound A], the “frameshift-rescue factor (FRF)” value in the experiment on antizyme frameshifting (25 µM) is 120. The EC50 in the experiment with antizyme frameshifting (Homo sapiens, HEK293, HEK-293 cells, 2.5 mM DFMO, concentration giving 50% of the maximum percent frameshifting (plateau), read-out: EC50 for induction of frameshifting) was approximately 120 µM. In addition, the “concentration range of compound A in which 1 µM spermidine rescues cells from growth inhibition” value in the experiment with HEK-293 cells [2] (HEK-293 cells, addition of 1 µM spermidine) is 3 to 100 µM. Also, in the experiment on HEK-293 cells [2] (Homo sapiens, HEK293, 144 h, read-out: IC50 for growth inhibition, HEK-293 cells, 6 days, 1 mM aminoguanidine), the IC50 is approximately 60 µM. For the same compound, in the experiment with HEK-293 cells [3] (10 µM compound A, 6 days), the “cell growth decreasing by” value is 32% and the “spermidine levels down by” value was “about 90%”. Moreover, the “cell growth decreasing by” value with HEK-293 cells [3] (30 µM compound A, 6 days) is given as 38.5%. In addition, the “spermine levels reduced by” value in the experiment on HEK-293 cells [3] (100 µM compound A, 6 days) was found to be 50%. The “spermine levels, percent of normal” value in the experiment with HEK-293 cells [3] (compound A levels above 30 µM) is given as “approximately 50%”.
Take `NCCCCNCc1ccc(CNCCCN)cc1` [Compound B]: in the experiment with antizyme frameshifting (25 µM, Fig 2), the “potency in inducing antizyme frameshifting compared with agmatine” value is on record as “more potent than agmatine”. The “frameshift-rescue factor (FRF)” value in the experiment on antizyme frameshifting (25 µM) was 83. Moreover, in the experiment with HEK-293 cells [1], the “ability to rescue cells from DFMO-induced growth inhibition” value is “neither compound A nor B significantly rescue cells”.
Regarding `NCCCN(CCCN)Cc1ccc(CN(CCCN)CCCN)cc1` [Compound S, reference compound], the “%RF (percent relative frameshifting)” value in the experiment with antizyme frameshifting (25 µM compound, relative to 25 µM spermidine) is 100%.
Turning to `CCNCCCCNCCCCNCCCCNCC` [bisethylhomospermine], in the experiment with antizyme, the “antizyme induction compared with spermine” value was “induce antizyme as well as spermine”.
In the case of `CCNCCCNCCCNCCCNCC` [bisethylnorspermine], the “antizyme induction compared with spermine” value with antizyme is listed as “induce antizyme as well as spermine”.
